Test results: publication PMC4501059, “Responding to the challenge of untreatable gonorrhea: ETX0914, a first-in-class agent with a distinct mechanism-of-action against bacterial Type II topoisomerases” (Scientific Reports, 2015)
Values after ≈ are worked out from the molar mass of the structure shown. Where two headings read alike, the source gives them in different places.

Experiments:
[1] = tested on: resistant isolates of S. aureus, S. pneumoniae and N. gonorrhoeae; type: cell-based; conditions: for susceptibility of spontaneous ETX0914 resistant mutants: S. aureus and N. gonorrhoeae GyrB mutants
[2] = tested on: Staphylococcus aureus; conditions: cited from earlier work
[3] = tested on: Neisseria gonorrhoeae; conditions: cited from earlier work
[4] = tested on: mouse lymphoma cells; assay: in vitro mouse micronucleus aberration assay (MMA); type: cell-based
Method: (§1) In vitro toxicology. Experiments for assessing micronuclei in mouse lymphoma cells^19 myeloid cytotoxicity^20 and erythroid cytotoxicity^21 were performed as described previously.

[5] = tested on: mammalian erythroid cell lines; assay: erythroid cytotoxicity (growth inhibition); type: cell-based; conditions: read-out: Erythroid IC50
Method: as §1

[6] = tested on: mammalian myeloid cell lines; assay: myeloid cytotoxicity (growth inhibition); type: cell-based; conditions: read-out: Myeloid IC50
Method: as §1

[7] = tested on: S. aureus ARC516; assay: MIC (CLSI broth microdilution); type: cell-based
[8] = tested on: S. aureus AP607004 (MRQR); assay: MIC (CLSI broth microdilution); type: cell-based
[9] = tested on: S. pneumoniae ATCC49619; assay: MIC (CLSI broth microdilution); type: cell-based
[10] = tested on: S. pneumoniae ARC2205 (ERQR); assay: MIC (CLSI broth microdilution); type: cell-based
[11] = tested on: N. gonorrhoeae ATCC49226; assay: MIC (CLSI agar dilution); type: cell-based
[12] = tested on: N. gonorrhoeae ARC4676 (QR); type: cell-based
[13] = Dog pharmacokinetics; type: in vivo, Beagle dog; conditions: beagle, dog, plasma
Method: AZD0914 was analyzed in mouse, rat, dog, monkey plasma using a qualified method which was later validated for human plasma analysis. The validated human method is described below and is representative of the approach taken in other species. AZD0914 was determined in human plasma prepared with K2EDTA as an anticoagulant. AZD0914 and an internal standard (^13C2, ^15N2 AZD0914) were extracted from plasma with tert- butyl methyl ether. After evaporating to dryness under a stream of nitrogen, the residue was reconstituted and quantitated by reverse phase HPLC-MS/MS against a standard curve from 1.00 to 5000 ng/ml. Separation was achieved using a gradient which went from 55% to 85% methanol:acetonitrile (1:1) containing 0.2% formic acid as mobile phase B and 0.2% formic acid in water as mobile phase A at a flow rate of 0.60 ml/min through a Phenomonex Gemini C18 column (50 x 2.0 mm column, […]) heated using a Shimadzu CTO-20AC set to 40 °C. AZD0914 was detected in multiple reaction monitoring (MRM) mode by positive ion electrospray ionization using a Sciex API5500 (Toronto, Canada) mass spectrometer. The ion spray voltage was set to 5500 V and turboionspray temperature was 650 °C. AZD0914 was quantitated using the MRM transition 488.2 → 348.2 using a collision energy of 29 eV. The internal standard, (^13C2, ^15N2 AZD0914), was monitored using identical conditions except for the MRM transition of 492.2 → 348.2.

[14] = physchem
[15] = Human plasma protein binding (PPB); conditions: plasma
[16] = target: Iks/Kv7.1 (Homo sapiens, UniProt P51787); assay: In vitro ion channel function; type: cell-based; conditions: Iks/Kv7.1 IC50, Slowly activating K^+ delayed rectifier
Excerpt: (§2) Supplement srep11827-s1.doc, table 3 | column: Table S2: In vitro ion channel function IC50 (µM)

[17] = target: T1, Ito/Kv4.3 (Homo sapiens, UniProt Q9UK17); assay: In vitro ion channel function; type: cell-based; conditions: Ito/Kv4.3 IC50, Transient outward K^+ early repolarization
T1 sequence (Q9UK17 1-655): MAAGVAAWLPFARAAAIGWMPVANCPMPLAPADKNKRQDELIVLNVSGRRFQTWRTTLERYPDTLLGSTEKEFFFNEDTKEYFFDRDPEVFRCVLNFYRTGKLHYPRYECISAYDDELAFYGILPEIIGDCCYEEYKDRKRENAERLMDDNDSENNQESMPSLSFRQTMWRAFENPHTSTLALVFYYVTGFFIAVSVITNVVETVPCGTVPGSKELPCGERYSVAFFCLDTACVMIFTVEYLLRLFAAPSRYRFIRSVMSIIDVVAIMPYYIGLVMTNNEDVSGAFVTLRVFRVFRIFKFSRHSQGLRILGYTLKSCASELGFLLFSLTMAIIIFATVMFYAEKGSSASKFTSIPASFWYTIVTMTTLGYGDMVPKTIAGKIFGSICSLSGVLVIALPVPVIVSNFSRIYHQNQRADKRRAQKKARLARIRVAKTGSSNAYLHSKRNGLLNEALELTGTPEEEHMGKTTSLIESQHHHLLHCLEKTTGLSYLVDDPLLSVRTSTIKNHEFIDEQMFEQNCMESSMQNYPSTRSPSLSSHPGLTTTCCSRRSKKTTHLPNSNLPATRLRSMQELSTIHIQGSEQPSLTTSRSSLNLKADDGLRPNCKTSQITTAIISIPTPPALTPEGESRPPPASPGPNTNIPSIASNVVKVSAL
Excerpt: as §2

[18] = target: hCav1.2 (Homo sapiens, UniProt Q13936); assay: In vitro ion channel function; type: cell-based; conditions: hCav1.2 IC50, Ca^2+ entry into excitable cells
Excerpt: as §2

[19] = target: hNav1.5 (Homo sapiens, UniProt Q14524); assay: In vitro ion channel function; type: cell-based; conditions: hNav1.5 IC50, Initiation of cardiac action potential/QRS interval
Excerpt: as §2

[20] = target: hERG (Homo sapiens, UniProt Q12809); assay: In vitro ion channel function; conditions: hERG IC50, K^+ rectifying current/QT interval
[21] = comparative haematology analysis in the rat, oral dosing; conditions: for AUC: in vivo, po
[22] = target: Kv1.5 (Homo sapiens, UniProt P22460); assay: In vitro ion channel function; type: cell-based; conditions: Ikr/Kv1.5 IC50, Rapidly activating K^+ delayed rectifier
Excerpt: as §2

[23] = Table 2, first entry of the cell (ciprofloxacin: 250 mg UID line)

Sequence of Iks/Kv7.1 (P51787 whole entry): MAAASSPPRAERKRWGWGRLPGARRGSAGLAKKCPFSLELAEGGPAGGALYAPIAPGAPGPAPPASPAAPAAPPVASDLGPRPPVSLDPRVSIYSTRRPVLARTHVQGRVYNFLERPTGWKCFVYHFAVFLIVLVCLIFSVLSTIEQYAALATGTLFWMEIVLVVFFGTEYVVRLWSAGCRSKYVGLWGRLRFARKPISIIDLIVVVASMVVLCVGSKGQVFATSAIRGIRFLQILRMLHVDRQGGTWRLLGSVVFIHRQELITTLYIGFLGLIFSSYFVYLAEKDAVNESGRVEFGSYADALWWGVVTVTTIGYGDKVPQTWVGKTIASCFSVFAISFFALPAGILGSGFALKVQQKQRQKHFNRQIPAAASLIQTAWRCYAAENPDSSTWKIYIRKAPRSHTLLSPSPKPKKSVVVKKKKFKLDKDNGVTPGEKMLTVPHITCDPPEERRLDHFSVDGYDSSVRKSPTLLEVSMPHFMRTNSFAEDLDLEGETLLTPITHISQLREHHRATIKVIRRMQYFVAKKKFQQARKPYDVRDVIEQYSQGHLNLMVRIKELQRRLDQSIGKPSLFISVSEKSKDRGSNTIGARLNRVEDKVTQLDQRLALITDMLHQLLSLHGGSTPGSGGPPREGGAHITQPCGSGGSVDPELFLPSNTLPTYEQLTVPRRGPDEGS
Sequence of hCav1.2 (P54289 25-1103): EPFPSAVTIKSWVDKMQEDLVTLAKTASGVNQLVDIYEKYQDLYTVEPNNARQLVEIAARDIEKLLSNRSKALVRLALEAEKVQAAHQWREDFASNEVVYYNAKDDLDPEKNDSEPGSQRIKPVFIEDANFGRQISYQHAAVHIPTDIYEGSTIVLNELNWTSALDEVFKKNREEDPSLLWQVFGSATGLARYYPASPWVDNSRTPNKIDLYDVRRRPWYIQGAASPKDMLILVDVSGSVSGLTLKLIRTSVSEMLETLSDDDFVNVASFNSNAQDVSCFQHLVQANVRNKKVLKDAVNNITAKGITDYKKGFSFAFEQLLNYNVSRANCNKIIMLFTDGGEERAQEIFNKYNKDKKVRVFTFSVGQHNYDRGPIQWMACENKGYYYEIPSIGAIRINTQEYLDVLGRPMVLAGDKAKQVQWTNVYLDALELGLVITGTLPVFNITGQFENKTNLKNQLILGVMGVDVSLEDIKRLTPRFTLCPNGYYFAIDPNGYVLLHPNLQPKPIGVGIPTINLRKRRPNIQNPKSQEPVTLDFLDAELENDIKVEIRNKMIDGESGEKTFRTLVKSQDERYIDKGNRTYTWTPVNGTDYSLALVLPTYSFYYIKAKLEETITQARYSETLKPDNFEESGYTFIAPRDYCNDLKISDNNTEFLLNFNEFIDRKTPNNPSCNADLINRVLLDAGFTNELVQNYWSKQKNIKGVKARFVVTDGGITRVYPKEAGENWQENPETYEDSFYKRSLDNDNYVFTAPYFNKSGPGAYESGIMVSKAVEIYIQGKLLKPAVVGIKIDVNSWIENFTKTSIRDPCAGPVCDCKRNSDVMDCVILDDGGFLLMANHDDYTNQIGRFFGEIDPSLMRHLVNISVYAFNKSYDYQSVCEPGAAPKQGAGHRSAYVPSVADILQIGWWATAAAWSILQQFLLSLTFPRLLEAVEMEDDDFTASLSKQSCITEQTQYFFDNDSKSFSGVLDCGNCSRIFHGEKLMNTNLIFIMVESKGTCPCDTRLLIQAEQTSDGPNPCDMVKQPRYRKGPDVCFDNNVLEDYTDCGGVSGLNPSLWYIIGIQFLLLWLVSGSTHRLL
Sequence of hCav1.2 (Q13936 whole entry): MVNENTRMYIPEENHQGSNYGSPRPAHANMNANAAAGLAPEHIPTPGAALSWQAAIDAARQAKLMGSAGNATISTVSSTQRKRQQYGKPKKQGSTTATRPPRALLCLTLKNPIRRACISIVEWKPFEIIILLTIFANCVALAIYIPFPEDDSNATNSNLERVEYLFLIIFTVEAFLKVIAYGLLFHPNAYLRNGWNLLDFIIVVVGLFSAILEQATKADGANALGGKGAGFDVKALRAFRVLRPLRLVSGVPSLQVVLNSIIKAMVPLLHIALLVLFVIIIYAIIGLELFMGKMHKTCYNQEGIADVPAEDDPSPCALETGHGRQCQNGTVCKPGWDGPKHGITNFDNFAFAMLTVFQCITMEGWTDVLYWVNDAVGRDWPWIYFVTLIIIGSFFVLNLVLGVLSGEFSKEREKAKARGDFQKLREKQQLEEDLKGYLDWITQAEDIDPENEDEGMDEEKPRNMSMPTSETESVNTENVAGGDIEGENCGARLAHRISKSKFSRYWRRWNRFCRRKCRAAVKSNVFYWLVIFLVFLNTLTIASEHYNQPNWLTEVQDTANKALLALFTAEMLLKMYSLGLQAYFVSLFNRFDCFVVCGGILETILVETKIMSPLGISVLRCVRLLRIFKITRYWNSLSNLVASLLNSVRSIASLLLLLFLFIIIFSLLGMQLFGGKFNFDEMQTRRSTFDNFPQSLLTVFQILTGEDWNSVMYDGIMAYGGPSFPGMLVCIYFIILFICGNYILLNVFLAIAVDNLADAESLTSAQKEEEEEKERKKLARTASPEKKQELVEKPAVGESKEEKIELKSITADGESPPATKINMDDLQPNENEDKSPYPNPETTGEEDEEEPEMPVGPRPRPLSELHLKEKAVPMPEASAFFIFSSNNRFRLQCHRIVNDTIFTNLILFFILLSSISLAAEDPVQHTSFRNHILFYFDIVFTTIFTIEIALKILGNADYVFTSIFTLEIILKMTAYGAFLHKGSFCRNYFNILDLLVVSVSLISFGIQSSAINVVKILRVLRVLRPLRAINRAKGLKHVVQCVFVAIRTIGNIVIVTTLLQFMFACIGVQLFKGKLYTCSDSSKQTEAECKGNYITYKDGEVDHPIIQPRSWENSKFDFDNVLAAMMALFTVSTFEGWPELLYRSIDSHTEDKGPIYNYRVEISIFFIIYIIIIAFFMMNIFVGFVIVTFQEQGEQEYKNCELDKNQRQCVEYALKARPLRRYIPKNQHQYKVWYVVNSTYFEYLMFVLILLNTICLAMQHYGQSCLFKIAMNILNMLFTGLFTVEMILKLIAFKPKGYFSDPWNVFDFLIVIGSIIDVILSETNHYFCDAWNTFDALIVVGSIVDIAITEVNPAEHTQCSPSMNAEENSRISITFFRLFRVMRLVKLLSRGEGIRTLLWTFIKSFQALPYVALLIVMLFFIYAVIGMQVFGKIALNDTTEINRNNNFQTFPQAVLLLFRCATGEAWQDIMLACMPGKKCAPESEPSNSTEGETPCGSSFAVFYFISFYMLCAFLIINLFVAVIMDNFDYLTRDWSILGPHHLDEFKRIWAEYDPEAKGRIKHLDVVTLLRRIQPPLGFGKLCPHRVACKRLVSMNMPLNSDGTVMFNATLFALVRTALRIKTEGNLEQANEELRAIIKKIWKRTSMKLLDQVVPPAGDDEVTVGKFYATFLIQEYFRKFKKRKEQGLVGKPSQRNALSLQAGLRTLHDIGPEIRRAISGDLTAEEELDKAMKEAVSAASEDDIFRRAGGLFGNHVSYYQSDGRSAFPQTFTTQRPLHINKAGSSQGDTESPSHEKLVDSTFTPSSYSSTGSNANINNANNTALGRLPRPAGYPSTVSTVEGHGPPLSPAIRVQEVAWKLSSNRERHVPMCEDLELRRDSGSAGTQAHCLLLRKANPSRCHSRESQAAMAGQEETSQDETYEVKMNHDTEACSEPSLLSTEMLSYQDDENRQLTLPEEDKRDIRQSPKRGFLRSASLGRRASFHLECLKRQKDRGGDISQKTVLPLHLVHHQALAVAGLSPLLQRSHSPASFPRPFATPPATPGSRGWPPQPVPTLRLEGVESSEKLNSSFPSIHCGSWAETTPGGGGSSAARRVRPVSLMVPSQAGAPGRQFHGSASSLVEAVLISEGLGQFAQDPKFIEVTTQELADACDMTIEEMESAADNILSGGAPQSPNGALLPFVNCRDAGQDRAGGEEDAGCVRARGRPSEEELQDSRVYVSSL
Sequence of hCav1.2 (Q08289 whole entry, further chain): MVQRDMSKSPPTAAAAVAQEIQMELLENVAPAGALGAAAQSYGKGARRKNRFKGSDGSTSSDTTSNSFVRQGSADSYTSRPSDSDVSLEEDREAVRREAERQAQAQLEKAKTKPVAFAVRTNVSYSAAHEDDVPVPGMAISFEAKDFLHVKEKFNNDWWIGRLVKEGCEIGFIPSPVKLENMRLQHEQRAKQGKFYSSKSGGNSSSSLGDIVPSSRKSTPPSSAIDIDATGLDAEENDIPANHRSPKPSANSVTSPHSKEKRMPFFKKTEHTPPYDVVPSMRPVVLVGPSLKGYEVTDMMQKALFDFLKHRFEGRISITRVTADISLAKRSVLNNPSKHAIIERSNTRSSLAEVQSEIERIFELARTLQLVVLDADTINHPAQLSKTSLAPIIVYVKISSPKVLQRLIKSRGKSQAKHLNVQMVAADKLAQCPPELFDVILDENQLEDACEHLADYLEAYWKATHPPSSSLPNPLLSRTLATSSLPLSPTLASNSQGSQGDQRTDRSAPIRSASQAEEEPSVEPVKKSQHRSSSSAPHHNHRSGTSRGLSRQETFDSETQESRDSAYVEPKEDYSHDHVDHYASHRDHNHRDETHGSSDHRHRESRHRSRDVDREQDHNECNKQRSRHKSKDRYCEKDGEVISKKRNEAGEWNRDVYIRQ

SMILES: N#Cc1ccc2ccc(=O)n(CCN3CC[C@H](NCc4cc5c(cn4)OCCO5)[C@H](F)C3)c2c1 [NBTI 3, 1-[2-[(3R,4S)-4-(2,3-Dihydro-[1,4]dioxino[2,3-c]pyridin-7-ylmethylamino)-3-fluoro-1-piperidyl]ethyl]-2-oxo-quinoline-7-carbonitrile]
- susceptibility of fluoroquinolone resistant isolate ARC4680 ([1]; N. gonorrhoeae ARC4680): reduced susceptibility
- susceptibility of spontaneous ETX0914 resistant mutants [1]: fully susceptible

SMILES: CC1COc2c(N3CCN(C)CC3)c(F)cc3c(=O)c(C(=O)O)cn1c23 (centres unmarked) [Ofloxacin, reference compound]
- MIC90, skin infection (S. aureus) ([2]; Table 2): 2 µg/mL (≈ 5.53 µM)
- MIC90, gonococcal infection (N. gonorrhoeae) [3, 23]: 0.25 to 0.5 µg/mL

SMILES: CO/N=C1\CN(c2nc3c(cc2F)c(=O)c(C(=O)O)cn3C2CC2)CC1CN (centres unmarked) [Gemifloxacin, reference compound]
- concentration giving a measurable genotoxicity signal in the in vitro MMA [4]: 6 µM
- Micronucleus NOEL ([4]; in vitro): 3 µM
- IC50 [5]: 7 µM
- IC50 [6]: 10 µM

SMILES: Cc1nnc(-c2noc3c(F)c4c(cc23)CC2(C(=O)NC(=O)NC2=O)[C@H]2[C@H](C)O[C@H](C)CN42)o1 [Compound 8]
- MIC: S. aureus ARC516 [7]: 0.25 µg/mL (≈ 0.531 µM)
- MIC: S. aureus AP607004 (MRQR) [8]: 0.25 µg/mL (≈ 0.531 µM)
- MIC: S. pneumoniae ATCC49619 [9]: 0.125 µg/mL (≈ 0.266 µM)
- MIC: S. pneumoniae ARC2205 (ERQR) [10]: 0.25 µg/mL (≈ 0.531 µM)
- MIC: N. gonorrhoeae ATCC49226 [11]: 1 µg/mL (≈ 2.13 µM)
- MIC: N. gonorrhoeae ARC4676 (QR) [12]: 1 µg/mL (≈ 2.13 µM)
- Dog F [13]: 32%
- clearance [13]: 4.7 mL/min/kg
- Micronucleus NOEL ([4]; in vitro): > 200 µM
- IC50 [5]: > 100 µM
- IC50 [6]: 76 µM
- solubility [14]: 1350 µM (≈ 635 µg/mL)
- fraction unbound [15]: 0.13

SMILES: CO/N=C(\C(=O)N[C@@H]1C(=O)N2C(C(=O)O)=C(CSc3nc(=O)c(=O)[nH]n3C)CS[C@H]12)c1csc(N)n1 [Ceftriaxone, reference compound]
- MIC90 for S. aureus [2]: 8 µg/mL

SMILES: C[C@@H]1CN2c3c(cc4c(-n5cncn5)noc4c3F)CC3(C(=O)NC(=O)NC3=O)[C@H]2[C@H](C)O1 [Compound 6]
- MIC: S. aureus ARC516 [7]: 0.031 µg/mL (≈ 0.0681 µM)
- MIC: S. aureus AP607004 (MRQR) [8]: 0.063 µg/mL (≈ 0.138 µM)
- MIC: S. pneumoniae ATCC49619 [9]: 0.125 µg/mL (≈ 0.274 µM)
- MIC: S. pneumoniae ARC2205 (ERQR) [10]: 0.125 µg/mL (≈ 0.274 µM)
- MIC: N. gonorrhoeae ATCC49226 [11]: 0.25 µg/mL (≈ 0.549 µM)
- MIC: N. gonorrhoeae ARC4676 (QR) [12]: 0.125 µg/mL (≈ 0.274 µM)
- Dog F [13]: 99%
- clearance [13]: 4.5 mL/min/kg
- Micronucleus NOEL ([4]; in vitro): 3 µM
- IC50 [16]: > 333 µM
- IC50 [17]: 224 µM
- IC50 [18]: > 100 µM
- IC50 [19]: > 333 µM
- solubility [14]: 73 µM (≈ 33.2 µg/mL)
- IC50 [20]: 237 µM
- fraction unbound [15]: 0.13
- haematologic effects ([21]; 100 mg/kg/day for 14 days in the rat): decreases in reticulocytes, neutrophils, lymphocytes and monocytes
- AUC ([21]; rat, 100 mg/kg): 950 µM·h
- AUC ([21]; rat, 250 mg/kg): 1700 µM·h
- reticulocytes count ([21]; rat, 6 at the higher dose (250 mg/kg, 5 d), linezolid 6 d): significant suppression
- neutrophil count ([21]; rat, both doses of 6, linezolid): showing suppression
- lymphocyte counts ([21]; rat, higher dose of 6): leading to suppression
- white blood cell count ([21]; rat, higher dose of 6): leading to suppression

SMILES: CO[C@@H]1[C@@H](OC(N)=O)[C@@H](O)[C@H](Oc2ccc3c(O)c(NC(=O)c4ccc(O)c(CC=C(C)C)c4)c(=O)oc3c2C)OC1(C)C [Novobiocin 4, Novobiocin]
- susceptibility of fluoroquinolone resistant clinical isolates ([1]; S. aureus ARC2381, S. pneumoniae ARC2480, N. gonorrhoeae ARC4672, ARC4680, ARC4676): fully susceptible
- susceptibility of spontaneous ETX0914 resistant mutants [1]: fully susceptible

SMILES: O=C(O)c1cn(C2CC2)c2cc(N3CCNCC3)c(F)cc2c1=O [Ciprofloxacin 2, Ciprofloxacin, reference compound]
- Micronucleus NOEL ([4]; mouse): 200 µM
- MIC90, gonococcal infection (N. gonorrhoeae) [3, 23]: 0.06 to 0.12 µg/mL
- MIC90, gonococcal infection (N. gonorrhoeae) ([3]; second entry of the cell, 500 mg UID line): 0.25 to 0.5 µg/mL

SMILES: C[C@H]1COc2c(N3CCN(C)CC3)c(F)cc3c(=O)c(C(=O)O)cn1c23 [Levofloxacin, reference compound]
- MIC: S. aureus ARC516 [7]: 0.25 µg/mL (≈ 0.692 µM)
- MIC: S. aureus AP607004 (MRQR) [8]: 8 µg/mL (≈ 22.1 µM)
- MIC: S. pneumoniae ATCC49619 [9]: 0.5 µg/mL (≈ 1.38 µM)
- MIC: S. pneumoniae ARC2205 (ERQR) [10]: 16 µg/mL (≈ 44.3 µM)
- IC50 [5]: 88 µM
- IC50 [6]: 79 µM

SMILES: C[C@@H]1CN2c3c(cc4c(N5C(=O)OC[C@@H]5C)noc4c3F)CC3(C(=O)NC(=O)NC3=O)[C@H]2[C@H](C)O1 [Compound 1]
- IC50 [16]: > 316 µM
- IC50 [17]: > 292 µM
- IC50 [22]: > 100 µM
- IC50 [18]: > 100 µM
- IC50 [19]: > 316 µM
- IC50 [20]: 232 µM
